The source of these data is patent US20240398783A1, “Compounds and Pharmaceutical Compositions Comprising Inhibitors of Amyloid Peptide Interactions with Glycosaminoglycans, Methods of Treatment and Use Thereof” (Gismo Therapeutics, Inc., priority 2021, published 2024).

Where a name gives a salt, the structure may show the parent alone. Some results are limits rather than exact numbers.

T1 sequence (P05067 672-713): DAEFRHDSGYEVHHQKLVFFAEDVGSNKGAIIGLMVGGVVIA

One experiment addresses T1, Amyloid-beta(1-42) oligomer binding to heparin (HS-GAG) (Homo sapiens, UniProt P05067).
T1 construct: Beta-amyloid (1-42) was purchased from rPeptide (Cat. No. A1163); purchased rPeptide A1163
Nature of the experiment: Inhibition of Amyloid-beta(1-42) oligomer binding to immobilized heparin-BSA (ELISA). Details: species or system porcine. The following applies: 30 μM compound; Abeta(1-42) oligomers, heparin-BSA; read-out: Abeta42/Heparin Activity (% inhibition class). As for the experimental part: Porcine intestinal mucosa heparin conjugated to Bovine Serum Albumin (Heparin-BSA) was prepared as described (Najjam, S. et al. 1997, Cytokine 12, 1013-1022). Heparin is a sulfated HS-GAG and is commonly used as a HS-GAG in biochemical and binding assays (Lindahl, U. and Kjellen, L. (2013) ibid). Heparin-BSA at 0.01 mg/ml in Phosphate Buffered Saline (PBS; pH 7.4) was added to a 96 well polystyrene ELISA plate (NUNC Cat. No. 449824; 100 μl per well) and incubated Over Night (ON) at 4 degrees Celsius. For negative controls, ELISA plates were coated with BSA instead of Heparin-BSA, using the same procedure. Following the incubation, the plate was washed consecutively, by immersion, with de-ionized water and PBS (pH 7.4). The ELISA plate was then blocked with nonfat milk (2%, 200 μl per well) for 2 hours at Room Temperature (RT) with gentle shaking. Following blocking, the plate was washed with de-ionized water then PBS (pH 7.4). GBAPs were dissolved and diluted in PBS (pH 6.5, supplemented with 0.1% BSA) at desired concentrations, added to the ELISA plates containing immobilized Heparin-BSA (100 μl per well) and incubated for 2 hours at RT with gentle shaking. Following incubation, the plate was washed with de-ionized water and three times with PBS (pH 6.5) plus Tween. Bound GBAP was detected by a monoclonal antibody specific for that GBAP, followed by incubation with secondary antibody conjugated to horseradish peroxidase (HRP). Antibody was diluted in PBS (pH 6.5 supplemented with 1% BSA). Following each incubation with antibody, the plate was washed with de-ionized water and three times with PBS (pH 6.5) wash buffer containing 0.1% Tween. The peroxidase substrate chromogen, TMB (Dako Cat. No. S1599) was added (100 μl per well) to the ELISA plate and incubated at room temperature. After 5 minutes ELISA Stop Solution (hydrochloric acid 1N, sulfuric acid 3N) was added (100 μl per well) to stop the peroxidase catalyzed colorimetric reaction. The Optical Density of the samples was measured at 450 nm using an ELISA plate reader (BioTek Synergy H1). Following color development, the % inhibition compared to control (BSA-coated plates) was determined. IC-50s were calculated using GraphPad Prism software.
The assay was performed as described in Example 43, with the following modifications. Following to coating the plates with Heparin-BSA, plates were washed as described. The compounds were dissolved in DMSO at 10 mM final concentration and further diluted prior to assay. DMSO concentration in the screening well was up to 2%. Individual compounds were co-incubated with Beta-amyloid peptides on plates containing immobilized heparin. Beta-amyloid (1-42) was purchased from rPeptide (Cat. No. A1163) and used to prepare oligomers according to Stine et al., 2003 (J Biol Chem. 278(13):11612-22) as follows. 1,1,1,3,3,3-Hexafluoro-2-propanol- (HFIP; Sigma Cat. No. 105228)-treated Beta amyloid (1-42) was dissolved in dry DMSO (Sigma Cat. No. D2650) to 5 mM concentration. Dissolved Beta amyloid (1-42) was then diluted to 100 μM in ice-cold cell culture medium (phenol red-free Ham's F-12; Caisson Labs, Cat. No. HFL05), followed immediately by vortexing for 30 seconds, and incubating at 4 degrees Celsius for 24 h. Resulting Beta amyloid (1-42) oligomers were centrifuged at 12,000 rpm for 10 min at 4 degree Celsius to remove aggregates. Oligomers were then quickly frozen and kept in aliquots at −80 degrees Celsius. Beta-amyloid (1-40) from rPeptide (Cat No. A1153) was dissolved in DMSO, quickly frozen and kept in aliquots at −80 degrees Celsius. Beta-amyloid (1-42) oligomers or Beta-amyloid (1-40) diluted in PBS (pH 6.5, supplemented with BSA, 0.1%) were added to the ELISA plate (100 μl per well) and incubated for 2 hours at RT with gentle shaking. Following the incubation, the plate was washed with de-ionized water and three times with PBS (pH 6.5) plus Tween. […]
On the technique in general: In an ELISA, binding on a coated surface is turned into a signal by an enzyme label.
For the compound `C[n+]1ccn(-c2ccc(Nc3ncnc4cc(Cl)ccc34)cn2)c1` [Compound 43, 1-(5-((7-chloroquinazolin-4-yl)amino)pyridin-2-yl)-3-methyl-1H-imidazol-3-ium iodide phosphoric acid salt], the inhibition at 30 µM was less than 30%.

Consider `O=S1(=O)CCN(Cc2ccc(/C=N/Nc3ccnc4cc(F)ccc34)cc2)CC1` [Compound 10, (E)-4-(4-((2-(7-fluoroquinolin-4-yl)hydrazono)methyl)benzyl)thiomorpholine 1,1-dioxide], for which the inhibition at 30 µM is less than 30%.

As to `C[n+]1ccc(/C=N\Nc2ccnc3ccccc23)cc1` [Compound 9, (Z)-1-methyl-4-((2-(quinolin-4-yl)hydrazono)methyl)pyridin-1-ium iodide], the inhibition at 30 µM was less than 30%.

On to `C/C(=N\Nc1ncnc2cc(Cl)ccc12)c1ccc(-n2cncn2)nc1` [Compound 32, (E)-4-(2-(1-(6-(1H-1,2,4-triazol-1-yl)pyridin-3-yl)ethylidene)hydrazineyl)-7-chloroquinazoline], for which the inhibition at 30 µM was less than 30%.

On to `COc1cc(Nc2nncc3cc(Cl)ccc23)cnc1-n1cnc(C)c1C` [Compound 31, 6-chloro-N-(6-(4,5-dimethyl-1H-imidazol-1-yl)-5-methoxypyridin-3-yl)phthalazin-1-amine phosphoric acid salt], for which the inhibition at 30 µM is less than 30%.

Consider `Fc1ccc2c(N/N=C/c3ccc(CN4CCOCC4)cc3)ccnc2c1` [Compound 6, (E)-4-(4-((2-(7-fluoroquinolin-4-yl)hydrazono)methyl)benzyl)morpholine], for which the inhibition at 30 µM is more than 30%.

Take `C/C(=N\Nc1ncnc2cc(Cl)ccc12)c1cccc(CN(C)C)c1` [Compound 29, 1-(3-(1-(2-(7-chloroquinazolin-4-yl)hydrazineylidene)ethyl)phenyl)—N,N-dimethylmethanamine]: the inhibition at 30 µM is more than 30%.

For `CN1CCN(Cc2ccc(/C=N/Nc3ccnc4cc(Cl)ccc34)cc2)CC1` [Compound 7, (E)-7-chloro-4-(2-(4-((4-methylpiperazin-1-yl)methyl)benzylidene)hydrazinyl)quinolone], the inhibition at 30 µM is less than 30%.

Staying with this experiment, now noted: Abeta(1-42) oligomers, co-incubation on heparin-BSA plates; read-out: Abeta42/Heparin Activity (IC-50).
Take `C/C(=N\Nc1ncnc2cc(F)ccc12)c1ccc(-n2cnc(C)c2C)nc1` [Compound 21, (E)-4-(2-(1-(6-(4,5-dimethyl-1H-imidazol-1-yl)pyridin-3-yl)ethylidene)hydrazineyl)-7-fluoroquinazoline]: the IC50 came out at 9.5 µM.

In the case of `C/C(=N\Nc1ncnc2cc(Cl)ccc12)c1ccc(-n2cc(C)nc2C)nc1` [Compound 18, (E)-7-chloro-4-(2-(1-(6-(2,4-dimethyl-1H-imidazol-1-yl)pyridin-3-yl)ethylidene)hydrazineyl)quinazoline phosphoric acid salt], the IC50 worked out at 13.6 µM.

On to `C/C(=N\Nc1ncnc2cc(Cl)ccc12)c1ccc(-n2cnc(C)c2C)nc1` [Compound 16, 7-chloro-4-(2-(1-(6-(4,5-dimethyl-1H-imidazol-1-yl)pyridin-3-yl)ethylidene)hydrazineyl)quinazoline phosphate], for which the IC50 was found to be 5.48 µM.

On to `Cc1ncn(-c2ccc(/C=N/Nc3ccnc4cc(Cl)ccc34)cc2)c1C` [Compound 2, (E)-7-chloro-4-((E)-(4-(4,5-dimethyl-1H-imidazol-1-yl)benzylidene)hydrazono)-1,4-dihydroquinoline], for which the IC50 was determined as 30.7 µM.

With `Cc1ncn(-c2ccc(/C=N\Nc3ncnc4cc(Cl)ccc34)cn2)c1C` [Compound 15, 7-chloro-4-(2-((6-(4,5-dimethyl-1H-imidazol-1-yl)pyridin-3-yl)methylene)hydrazineyl)quinazoline hydrochloride], the IC50 is 18.9 µM.

With `CC(=NNc1ncnc2cc(Cl)ccc12)c1ccnc(-n2cnc(C)c2C)c1` [Compound 28, 7-chloro-4-(2-(1-(2-(4,5-dimethyl-1H-imidazol-1-yl)pyridin-4-yl)ethylidene)hydrazineyl)quinazoline], the IC50 came out at 12.9 µM.

For the compound `Clc1ccc2c(Nc3ccc(-n4cncn4)nc3)ncnc2c1` [Compound 34, N-(6-(1H-1,2,4-triazol-1-yl)pyridin-3-yl)-7-chloroquinazolin-4-amine phosphoric acid salt], the IC50 turned out to be 9.93 µM.

With `C[N+](C)(C)Cc1ccc(/C=N\Nc2ccnc3ccc(Cl)cc23)cc1` [Compound 4, (Z)-1-(4-((2-(6-chloroquinolin-4-yl)hydrazineylidene)methyl)phenyl)—N,N,N-trimethylmethanaminium iodide], the IC50 was 42.7 µM.

Regarding `Cc1ncn(-c2ccc(Nc3ncnc4cc(Cl)ccc34)cn2)c1C` [Compound 25, 7-chloro-N-(6-(4,5-dimethyl-1H-imidazol-1-yl)pyridin-3-yl)quinazolin-4-amine], the IC50 was 9.9 µM.

As to `Clc1ccc2c(N/N=C/c3ccc(-n4ccnc4)nc3)ccnc2c1` [Compound 14, (E)-4-(2-((6-(1H-imidazol-1-yl)pyridin-3-yl)methylene)hydrazineyl)-7-chloroquinoline hydrochloride], the IC50 worked out at 8.14 µM.

`CC(=NNc1ccnc2cc(Cl)ccc12)c1ccc(-n2ccnc2)cc1` [Compound 36, 4-(2-(1-(4-(1H-imidazol-1-yl)phenyl)ethylidene)hydrazineyl)-7-chloroquinoline phosphate]: the IC50 is 14.2 µM.

As for `C/C(=N\Nc1nncc2cc(Cl)ccc12)c1ccc(-n2cc(C)nc2C)nc1` [Compound 24, (E)-6-chloro-1-(2-(1-(6-(2,4-dimethyl-1H-imidazol-1-yl)pyridin-3-yl)ethylidene)hydrazineyl)phthalazine], the IC50 turned out to be 16.9 µM.

As to `Clc1ccc2c(Nc3ccc(-n4cncn4)nc3)ccnc2c1` [Compound 44, N-(6-(1H-1,2,4-triazol-1-yl)pyridin-3-yl)-7-chloroquinolin-4-amine], the IC50 stood at 35.7 µM.

In the case of `C/C(=N\Nc1ncnc2cc(Cl)ccc12)c1ccc(-n2cc[n+](C)c2)nc1` [Compound 17, (E)-1-(5-(1-(2-(7-chloroquinazolin-4-yl)hydrazineylidene)ethyl)pyridin-2-yl)-3-methyl-1H-imidazol-3-ium iodide phosphoric acid salt], the IC50 was 11.7 µM.

Still in this experiment, the particulars now being: read-out: Abeta42/Heparin Activity (% inhibition class).
Take `COc1cc2nccc(N/N=C/c3ccc(-n4ccnc4)c(OC)c3)c2cc1OC` [Compound 13, (E)-4-(2-(4-(1H-imidazol-1-yl)-3-methoxybenzylidene)hydrazineyl)-6,7-dimethoxyquinoline phosphate]: the inhibition at 30 µM is less than 30%.

As for `COc1ccc2c(NN=Cc3ccc(-n4ccnc4)c(C)c3)ccnc2c1` [Compound 12, 4-(2-(4-(1H-imidazol-1-yl)-3-methylbenzylidene)hydrazineyl)-7-methoxyquinoline], the inhibition at 30 µM is less than 30%.

For the compound `C/C(=N\Nc1ncnc2cc(F)ccc12)c1ccc(-n2cc[n+](C)c2)nc1` [Compound 26, (E)-1-(5-(1-(2-(7-fluoroquinazolin-4-yl)hydrazineylidene)ethyl)pyridin-2-yl)-3-methyl-1H-imidazol-3-ium phosphoric acid salt], the inhibition at 30 µM was more than 30%.

As for `C/C(=N\Nc1ncnc2cc(Cl)ccc12)c1cccc(N2CCN(C)CC2)c1` [Compound 30, 7-chloro-4-(2-(1-(3-(4-methylpiperazin-1-yl)phenyl)ethylidene)hydrazineyl)quinazoline], the inhibition at 30 µM was more than 30%.
